Assay results taken from patent US20220380317A1, “COMPOUNDS HAVING ANTIMALARIAL ACTIVITY” (NANYANG TECHNOLOGICAL UNIVERSITY, priority 2019, published 2022).
Read-outs that look alike come from different tables or passages of the source.

What was measured:
P. falciparum = experiment: in vitro P. falciparum growth inhibition / dose response assay (Hoechst 33342 FACS read out); format: cell-based, Plasmodium falciparum; conditions: for IC50: in vitro, FIG. 7B, read-out: affinity (IC50 values, in vitro anti-parasitic activity)
Description: For the in vitro P. falciparum culture, P. falciparum 3D7, Dd2, K1, T994, W2, and W2mef cell lines were obtained from Malaria Research and Reference Reagent Resource Center (MR4), BEI Resources. Artemisinin-resistant and -sensitive parasite field isolates from Ratanakiri, Cambodia were obtained by request from the Tracking Resistance to Artemisinin Collaboration (TRAC). In vitro parasite culture was performed as described by Maier and Rug (Methods Mol Bio 2013; 923:3-15). Briefly, cultures were maintained with RPMI medium supplemented with Albumax II; […] RPMI-1640 (Gibco, Life Technologies), 2.5 g/L Albumax II (Gibco, Life Technologies), 2.3 g/L Sodium Bicarbonate (Sigma-Aldrich), 50 mg/L Hypoxanthine (Sigma-Aldrich), 10 mg/L Gentamicin Sulphate (Gibco, Life Technologies), in 2-3% haematocrit human RBCs collected via patient donation at National University Hospital, Singapore. Cultures were maintained with a special mixed gas of 3% O2, 5% CO2, balanced with N2 (SOXAL, Air Liquide, Singapore). For cultures grown in plate format, plates were kept in a sealed bag filled with mixed gas. Parasitemia and parasite stages were checked by microscopy of blood smears fixed in Methanol (Merck), stained in Giemsa (Sigma-Aldrich) in 1× Tris-Base, Acetic Acid, EDTA (TAE) buffer (analytical grade, Fischer US).
Synchronization of ring stage parasites (0-20 hour IDC) was done by incubating packed RBC culture with 5% (w/v) D-Sorbitol (Sigma-Aldrich) at 37° C. for 20 minutes. Cultures were washed with incomplete RPMI (iRPMI), 2,200 rpm, 3 minutes, brake 1 to remove sorbitol and cell debris. Late stage parasites (30-48 hour IDC) were isolated using a 68% Percoll (MP Biomedicals) gradient prepared with 1× Phosphate Buffer Saline (PBS) and iRPMI. Packed parasite cultures were diluted with iRPMI 1:5, then layer carefully atop of the 68% Percoll gradient in a 15 mL Falcon tube. Tubes were spun at 2,200 rpm for 20 minutes, brake 0. […]
In a mid-throughput compound library screen, compounds were screened for antiparasitic activity by growth rate over a duration of 60 hrs (slightly over one IDC). ˜1% parasitemia of 0-3hpi ring stage culture in 2% haematocrit were treated with 10 μM of library compound (0.1% final DMSO concentration), and seeded into 96well flat bottom plates. […] After 60 hr of treatment (to allow ring stages to develop a more defined morphology), taken for Fluorescent-activated Cell Sorting (FACS) read out.
Assay read out was done by staining with Hoechst 33342 (Excitation 350 nm, Emission 461 nm; Molecular Probes, Life Technologies), a cell permeable DNA staining dye. […] Cells were read via a High Throughput Sampler (HTS)-coupled FACS machine (BD Biosciences) in the UV laser excitation channel (Excitation 355 nm). […]

P. berghei [1] = experiment: in vivo four-day suppression test; set-up: species or system Balb/c mice; conditions: for dose required to achieve >95% killing: once daily Days 1 to 4, parasitemia measured on Day 5
Description: Four-week-old Balb/c mice were challenged with […] P. berghei parasites intravenously on Day 0. […] Parasitemia was measured on Day 5, and the following formula was used to measure in vivo activity;

[2] = system: lung, kidney, and liver epithelial cells; experiment: toxicity in epithelial cells; format: cell-based; conditions: at 1000-folds in excess of the therapeutic dose
P. berghei [3] = experiment: in vivo growth suppression test in P. berghei BALB/c mice model; conditions: 30 mg/kg intraperitoneally once daily for four days
Description: In a next step, the compound's in vitro activity was validated in vivo in a P. berghei BALB/c mice model. A growth suppression test was done by intraperitoneally infecting 4-week old Balb/c mice with GFP-expressing parasites, and allowing the parasitemia to rise to 3-4%. Subsequently, different doses of the compound were administered intraperitoneally once daily over four days.
Tail snips were done once daily to obtain blood samples for the measurement of parasitemia by FACS.

[4] = target: T1, Falcilysin (FLN, PlasmoDB geneID: PF3D7_1360800) (Plasmodium falciparum, UniProt Q76NL8); experiment: cell-free enzymatic inhibition assay with recombinant FLN and fluorescent-quencher peptide substrate; format: biochemical; conditions: 1 mM, fluorescence at 490 nm over 7 min
T1 construct: gift from Zbynek Bozdech, School of Biological Sciences, NTU
Description: In order to validate the results obtained from the CETSA screen, a cell-free enzymatic inhibition assay using recombinant-FLN and a fluorescent-quencher tagged 10-peptide substrate of FLN was employed. Recombinant FLN and the Dabcyl-[…] (SEQ ID NO:3)-Edans fluorescent-quencher peptides were a gift from Zbynek Bozdech of School of Biological Sciences, NTU. Briefly, recombinant FLN at a final concentration of 0.3 μg/ml in assay buffer (50 mM Bis-tris, pH 7.2) was prepared. […] Just prior to the read out, recombinant FLN in assay buffer was added. VO was determined by monitoring fluorescence (Aex=340 nm, Aem=490) over 7 min on a Tecan Infinite M200 Pro plate reader. Assays were done with two technical replicates each. Data of three biological replicates were averaged and plot on Microsoft excel to compare the slope of the fluorescence signal.

T1 sequence (Q76NL8 whole entry): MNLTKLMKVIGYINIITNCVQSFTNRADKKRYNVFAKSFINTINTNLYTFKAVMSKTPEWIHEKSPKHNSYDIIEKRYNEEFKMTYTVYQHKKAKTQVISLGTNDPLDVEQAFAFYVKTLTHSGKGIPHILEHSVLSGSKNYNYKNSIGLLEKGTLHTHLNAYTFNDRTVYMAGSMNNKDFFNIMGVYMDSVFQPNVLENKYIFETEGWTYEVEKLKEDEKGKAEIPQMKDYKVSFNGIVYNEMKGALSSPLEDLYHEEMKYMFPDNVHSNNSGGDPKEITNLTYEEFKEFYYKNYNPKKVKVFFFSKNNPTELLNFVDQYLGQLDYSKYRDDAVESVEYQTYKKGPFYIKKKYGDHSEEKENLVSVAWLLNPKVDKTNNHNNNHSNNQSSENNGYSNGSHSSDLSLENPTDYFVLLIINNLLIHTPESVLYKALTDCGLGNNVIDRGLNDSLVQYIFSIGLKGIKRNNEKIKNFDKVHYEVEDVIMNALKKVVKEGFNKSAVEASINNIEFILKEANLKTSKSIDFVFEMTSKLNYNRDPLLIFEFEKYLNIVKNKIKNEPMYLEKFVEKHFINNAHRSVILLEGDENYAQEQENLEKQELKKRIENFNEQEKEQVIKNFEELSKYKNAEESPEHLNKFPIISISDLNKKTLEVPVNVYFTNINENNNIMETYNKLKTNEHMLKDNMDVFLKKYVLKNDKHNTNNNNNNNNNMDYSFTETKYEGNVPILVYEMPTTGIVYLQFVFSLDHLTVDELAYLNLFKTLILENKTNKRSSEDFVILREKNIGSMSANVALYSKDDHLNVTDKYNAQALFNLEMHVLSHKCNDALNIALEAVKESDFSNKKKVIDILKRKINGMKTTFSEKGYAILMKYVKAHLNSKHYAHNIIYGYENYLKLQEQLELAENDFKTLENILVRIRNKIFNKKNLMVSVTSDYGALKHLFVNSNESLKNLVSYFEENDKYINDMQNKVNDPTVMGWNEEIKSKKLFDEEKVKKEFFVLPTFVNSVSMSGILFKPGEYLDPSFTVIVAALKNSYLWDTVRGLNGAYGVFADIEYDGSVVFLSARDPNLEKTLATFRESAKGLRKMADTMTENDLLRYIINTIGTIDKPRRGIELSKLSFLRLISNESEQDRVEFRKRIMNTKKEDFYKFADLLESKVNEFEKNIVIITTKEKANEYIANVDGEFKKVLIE

Molecule: 1-({3-[(4,5-Diphenyl-1-imidazolinyl)methyl]-5-methoxyphenyl}methyl)-4,5-diphenylimidazoline [SAR 13]
- in vitro potency compared with A1 (P. falciparum): more potent
- in vivo activity in 4-day suppressive test (P. berghei [1]; 20 mg/kg): highest activity
- dose required to achieve >95% killing (P. berghei [1]): 20 mg/kg

Molecule: C1=NC(c2ccccc2)C(c2ccccc2)N1Cc1cccc(CN2C=NC(c3ccccc3)C2c2ccccc2)c1 (centres unmarked) [A1, 1-({m-[(4,5-Diphenyl-1-imidazolinyl)methyl]phenyl}methyl)-4,5-diphenylimidazoline]
- IC50 (P. falciparum; Plasmodium falciparum): 120 nM
- toxicity [2]: Toxicity was not observed
- dose required to achieve >95% killing (P. berghei [1]): 30 mg/kg

Molecule: C1=N[C@@H](c2ccccc2)[C@H](c2ccccc2)N1Cc1cccc(CN2C=N[C@@H](c3ccccc3)[C@@H]2c2ccccc2)c1 [imidazole variant, (4S,5S)-1-[(m-{[(4S,5S)-4,5-Diphenyl-1-imidazolyl]methyl}phenyl)methyl]-4,5-diphenylimidazole]
- IC50 (P. falciparum): 4690 nM

Molecule: C[C@@H]1CC[C@H]2[C@@H](C)C(=O)O[C@@H]3O[C@@]4(C)CC[C@@H]1[C@]32OO4 [artemisinin]
- reduction of parasitemia (P. berghei [3]): unable to further reduce parasitemia beyond day 3

Molecule: 1-({6-[(4,5-Diphenyl-1-imidazolinyl)methyl]-2-pyridyl}methyl)-4,5-diphenylimidazoline [SAR 14]
- in vitro potency compared with A1 (P. falciparum): more potent
- dose required to achieve >95% killing (P. berghei [1]): 30 mg/kg

Molecule: C[C@@H]1C[C@@H]([C@H](O)CC2CC(=O)NC(=O)C2)C(=O)[C@@H](C)C1 [cyclohexamine]
- proteolytic activity of FLN [4]: No inhibition of proteolytic activity
